Patent US9850283B2, “Macrocyclic inhibitors of the PD-1/PD-L1 and CD80(B7-1)/PD-L1 protein/protein interactions” (BRISTOL-MYERS SQUIBB COMPANY, priority 2013, dated 2017)
pIC50: −log10 of the molar value. Read-outs that look alike come from different tables or passages of the source. Positions of bridges follow the written chain, without caps; N, C: chain ends. Non-standard residues stand in square brackets, D forms with d. Residues, ends and D or L forms follow the SMILES beside them. ξ: configuration not given here. Phe(3-Cl) = N[C@@H](Cc1cccc(Cl)c1)C(=O)O; Phe(3-Me) = Cc1cccc(C[C@H](N)C(=O)O)c1; Bta = N[C@@H](Cc1csc2ccccc12)C(=O)O; Hyp = O=C(O)[C@@H]1C[C@@H](O)CN1; NMeF = CN[C@@H](Cc1ccccc1)C(=O)O; NMeNle = CCCC[C@H](NC)C(=O)O; NMeA = CN[C@@H](C)C(=O)O; Orn = NCCC[C@H](N)C(=O)O; ξC = NC(CS)C(=O)O; Sar = CNCC(=O)O

Experiments:
[1] = target: T1, LK35.2-hPD-L1 cells / PE-labeled PD-1-Ig (Homo sapiens, UniProt Q9NZQ7); test: LK35.2-hPD-L1 cell binding high-content screening assay; type: cell-based; details: cluster symbol, read-out: CBA IC50 cluster
T1 construct: expressed in transfected cells; host or cells: LK35.2 mouse B cell line
How it was run: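 Binding of PE-conjugated human PD-1-Ig (1 nM final) to human PD-L1 stably expressed on a mouse B-cell line (LK35.2) was measured by high-content imaging after washes. Compound and labeled PD-1-Ig were co-incubated 1 h at 37 °C with cells in RPMI/10% FCS.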

[2] = target: T2, Human PD-L1/PD-1 (Homo sapiens, UniProt Q9NZQ7); test: HTRF PD-1-Ig/PD-L1-His binding assay (human PD-L1); details: cluster symbol; read-out: HTRF IC50 cluster
T2 construct: made in house; host or cells: HEK293T
How it was run: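 Ig- and His-fused extracellular PD-1/PD-L1 binding in BSA/Tween-20 dPBS. HTRF with Eu anti-Ig (1 nM final) and APC anti-His (20 nM final).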

[3] = cell binding assay, cell line not given
[4] = cell line of CBA not given (LK35.2-hPD-L1 or 293T-hPD-L1)

T1 sequence (Q9NZQ7 19-290): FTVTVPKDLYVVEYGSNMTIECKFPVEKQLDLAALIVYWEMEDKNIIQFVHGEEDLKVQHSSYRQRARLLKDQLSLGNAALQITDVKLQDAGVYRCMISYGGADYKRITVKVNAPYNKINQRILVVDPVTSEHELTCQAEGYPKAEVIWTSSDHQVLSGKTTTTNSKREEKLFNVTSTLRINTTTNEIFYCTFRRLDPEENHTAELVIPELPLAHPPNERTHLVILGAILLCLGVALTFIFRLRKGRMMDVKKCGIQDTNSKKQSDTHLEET
T2 sequence (Q9NZQ7 with tags, fused parts or gaps): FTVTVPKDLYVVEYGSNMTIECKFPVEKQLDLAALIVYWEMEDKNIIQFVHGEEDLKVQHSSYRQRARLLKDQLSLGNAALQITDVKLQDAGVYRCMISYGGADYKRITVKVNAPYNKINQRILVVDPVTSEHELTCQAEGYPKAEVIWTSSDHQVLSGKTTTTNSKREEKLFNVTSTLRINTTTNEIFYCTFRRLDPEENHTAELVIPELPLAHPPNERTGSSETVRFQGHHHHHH

Compound	pIC50 [1, 3]	pIC50 [2]	pIC50 [1, 4]
CCCC[C@H]1C(=O)N(C)[C@@H](CCCC)C(=O)N[C@@H](CCCNC(=N)N)C(=O)N[C@H](C(=O)NCC(N)=O)CSCC(=O)N[C@@H](Cc2cccc(C)c2)C(=O)N(C)[C@@H](C)C(=O)N[C@@H](CC(N)=O)C(=O)N2CCC[C@H]2C(=O)N[C@@H](Cc2cnc[nH]2)C(=O)N[C@@H](CC(C)C)C(=O)N2C[C@H](O)C[C@H]2C(=O)N[C@@H](Cc2c[nH]c3ccccc23)C(=O)N[C@@H](CO)C(=O)N[C@@H](Cc2c[nH]c3ccccc23)C(=O)N1C [Example 7057] ({CH2CO}-[Phe(3-Me)][NMeA]NPHL[Hyp]WSW[NMeNle][NMeNle]RCG-NH2; thioether N-14)	7.14 to 8.32	8.17 to 9.41	
CCCC[C@H]1C(=O)N(C)[C@@H](CCCC)C(=O)N[C@@H](CCCNC(=N)N)C(=O)NC(C(=O)N[C@@H](CO)C(N)=O)CSCC(=O)N[C@@H](Cc2ccc(O)cc2)C(=O)N(C)[C@@H](C)C(=O)N[C@@H](CC(N)=O)C(=O)N2CCC[C@H]2C(=O)N[C@@H](Cc2cnc[nH]2)C(=O)N[C@@H](CO)C(=O)N2CCC[C@H]2C(=O)N[C@@H](Cc2c[nH]c3ccccc23)C(=O)N[C@@H](CO)C(=O)N[C@@H](Cc2csc3ccccc23)C(=O)N1C (stereo partly shown) [Example 9076] ({CH2CO}-Y[NMeA]NPHSPWS[Bta][NMeNle][NMeNle]R[ξC]S-NH2; thioether N-14)	7.14 to 8.32	8.17 to 9.41	
CCCC[C@H]1C(=O)N(C)[C@@H](CCCC)C(=O)N[C@@H](CCCNC(=N)N)C(=O)N[C@H](C(=O)NCC(N)=O)CSCC(=O)N[C@@H](Cc2ccccc2)C(=O)N(C)[C@@H](C)C(=O)N[C@H](C)C(=O)N2CCC[C@H]2C(=O)N[C@@H](Cc2cnc[nH]2)C(=O)N[C@@H](CC(C)C)C(=O)N(C)CC(=O)N[C@@H](Cc2c[nH]c3ccccc23)C(=O)N[C@@H](CO)C(=O)N[C@@H](Cc2c[nH]c3ccccc23)C(=O)N1C [Example 1081] ({CH2CO}-F[NMeA][dA]PHL[Sar]WSW[NMeNle][NMeNle]RCG-NH2; thioether N-14)		< 7.52	< 7.13
CCCC[C@H]1C(=O)N(C)CC(=O)N[C@@H](CC(=O)O)C(=O)N[C@@H](C(C)C)C(=O)N(C)[C@@H](Cc2ccccc2)C(=O)N[C@@H](Cc2ccc(O)cc2)C(=O)N(C)CC(=O)N[C@@H](Cc2c[nH]c3ccccc23)C(=O)N[C@@H](Cc2ccc(O)cc2)C(=O)N[C@@H](CC(C)C)C(=O)N[C@H](C(=O)NCC(N)=O)CSCC(=O)N[C@@H](Cc2c[nH]c3ccccc23)C(=O)N(C)[C@@H](Cc2ccccc2)C(=O)N1C [Example 3090] (HELM PEPTIDE1{[O=C(C[*:3])[*:2]].W.[meF].[CCCC[C@@H](C(=O)[*:2])N(C)[*:1]].[Sar].D.V.[meF].Y.[Sar].W.Y.L.C.G.[am]}$PEPTIDE1,PEPTIDE1,1:R3-14:R3$$$V2.0)		< 7.52	< 7.13
CCCC[C@H]1C(=O)N(C)CC(=O)N[C@@H](CC(=O)O)C(=O)N[C@@H](C(C)C)C(=O)N(C)[C@@H](Cc2ccccc2)C(=O)N[C@@H](Cc2ccc(O)cc2)C(=O)N(C)CC(=O)N[C@@H](Cc2csc3ccccc23)C(=O)N[C@@H](Cc2ccc(O)cc2)C(=O)N[C@@H](CC(C)C)C(=O)N[C@H](C(=O)NCC(N)=O)CSCC(=O)N[C@@H](Cc2cccc(Cl)c2)C(=O)N(C)[C@@H](Cc2ccccc2)C(=O)N1C [Example 3114] ({CH2CO}-[Phe(3-Cl)][NMeF][NMeNle][Sar]DV[NMeF]Y[Sar][Bta]YLCG-NH2; thioether N-13)		7.52 to 8.17	7.14 to 8.32
CCCC[C@H]1C(=O)N(C)[C@@H](C)C(=O)N[C@@H](CCCNC(=N)N)C(=O)NC(C(=O)NCC(N)=O)CSCC(=O)N[C@@H](Cc2ccc(O)cc2)C(=O)N(C)[C@@H](C)C(=O)N[C@@H](CC(N)=O)C(=O)N2CCC[C@H]2C(=O)N[C@@H](CO)C(=O)N[C@@H](CC(C)C)C(=O)N2CCC[C@H]2C(=O)N[C@@H](Cc2c[nH]c3ccccc23)C(=O)N[C@@H](CO)C(=O)N[C@@H](Cc2csc3ccccc23)C(=O)N1C (stereo partly shown) [Example 9111] ({CH2CO}-Y[NMeA]NPSLPWS[Bta][NMeNle][NMeA]R[ξC]G-NH2; thioether N-14)	7.14 to 8.32	8.17 to 9.41	
CCCC[C@H]1C(=O)N(C)[C@@H](CCCC)C(=O)N[C@@H](CCCNC(=N)N)C(=O)N[C@H](C(=O)NCC(N)=O)CSCC(=O)N[C@@H](Cc2ccccc2)C(=O)N(C)[C@@H](C)C(=O)N[C@@H](CC(N)=O)C(=O)N2CCC[C@H]2C(=O)N[C@@H](Cc2cnc[nH]2)C(=O)N[C@@H](CC(C)C)C(=O)N(C)CC(=O)N[C@@H](Cc2c[nH]cn2)C(=O)N[C@@H](CO)C(=O)N[C@@H](Cc2c[nH]c3ccccc23)C(=O)N1C [Example 1073] ({CH2CO}-F[NMeA]NPHL[Sar]HSW[NMeNle][NMeNle]RCG-NH2; thioether N-14)		< 7.52	< 7.13
CCCC[C@H]1C(=O)N(C)[C@@H](CCCC)C(=O)N[C@@H](CCCNC(=N)N)C(=O)NC(C(=O)NCC(N)=O)CSCC(=O)N[C@@H](Cc2ccc(O)cc2)C(=O)N(C)[C@@H](CO)C(=O)N[C@@H](CC(N)=O)C(=O)N2CCC[C@H]2C(=O)N[C@@H](Cc2cnc[nH]2)C(=O)N[C@@H](CC(C)C)C(=O)N2C[C@H](O)C[C@H]2C(=O)N[C@@H](Cc2c[nH]c3ccccc23)C(=O)N[C@@H](CO)C(=O)N[C@@H](Cc2c[nH]c3ccccc23)C(=O)N1C (stereo partly shown) [Example 9036]	8.33 to 9.80	8.17 to 9.41	
CCCC[C@H]1C(=O)N(C)[C@@H](CCCC)C(=O)N[C@@H](CCC(=O)O)C(=O)N[C@H](C(=O)NCC(N)=O)CSCC(=O)N[C@@H](Cc2ccc(O)cc2)C(=O)N(C)[C@@H](C)C(=O)N[C@@H](CC(=O)O)C(=O)N2CCC[C@H]2C(=O)N[C@@H](Cc2c[nH]cn2)C(=O)N[C@@H](CCCN)C(=O)N2C[C@H](O)C[C@H]2C(=O)N[C@@H](Cc2c[nH]c3ccccc23)C(=O)N[C@@H](CCCCN)C(=O)N[C@@H](Cc2c[nH]c3ccccc23)C(=O)N1C [Example 5137] ({CH2CO}-Y[NMeA]DPH[Orn][Hyp]WKW[NMeNle][NMeNle]ECG-NH2; thioether N-14)	8.33 to 9.80	8.17 to 9.41	
CCCC[C@H]1C(=O)N(C)[C@@H](CCCC)C(=O)N[C@@H](CCC(=O)O)C(=O)N[C@H](C(=O)NCC(N)=O)CSCC(=O)N[C@@H](Cc2ccc(O)cc2)C(=O)N(C)[C@@H](C)C(=O)N[C@@H](CCC(=O)O)C(=O)N2CCC[C@H]2C(=O)N[C@@H](Cc2c[nH]cn2)C(=O)N[C@@H](CCCN)C(=O)N2C[C@H](O)C[C@H]2C(=O)N[C@@H](Cc2c[nH]c3ccccc23)C(=O)N[C@@H](CCCCN)C(=O)N[C@@H](Cc2c[nH]c3ccccc23)C(=O)N1C [Example 5138] ({CH2CO}-Y[NMeA]EPH[Orn][Hyp]WKW[NMeNle][NMeNle]ECG-NH2; thioether N-14)	8.33 to 9.80	8.17 to 9.41	
CCCC[C@H]1C(=O)N(C)[C@@H](CCCC)C(=O)N[C@@H](CCCNC(=N)N)C(=O)NC(C(=O)NCC(N)=O)CSCC(=O)N[C@@H](Cc2ccc(O)cc2)C(=O)N(C)[C@@H](C)C(=O)N[C@@H](CC(N)=O)C(=O)N2CCC[C@H]2C(=O)N[C@@H](Cc2cnc[nH]2)C(=O)N[C@@H](CC(C)C)C(=O)N2[C@@H](C)CC[C@H]2C(=O)N[C@@H](Cc2c[nH]c3ccccc23)C(=O)N[C@@H](CO)C(=O)N[C@@H](Cc2c[nH]c3ccccc23)C(=O)N1C (stereo partly shown) [Example 9014]	8.33 to 9.80	8.17 to 9.41	
